Source: publication PMC6976901 (Toxicology Reports, 2020)
Read-outs that look alike come from different tables or passages of the source. Marks after values point to notes of the source that are not given here.

Experiments:
[1] = in vitro; conditions: human, Caco-2
[2] = system: liver (hepatotoxicity); conditions: cited from earlier work
[3] = fraction absorbed, oral; cited from earlier work
[4] = system: human intestinal epithelial Caco-2 cell monolayer; conditions: apical pH 6.0 to basal pH 7.4, mean ± SD of triplicate; for observed Papp: Table 2 secondary set; for Papp: Table 1 primary set
[5] = Table 1, Hazard Evaluation Support System Integrated Platform
[6] = Table 2, Hazard Evaluation Support System Integrated Platform

Cc1cccc(N)c1C [2,3-dimethylaniline]
Papp [1]: 62.4 ± 3 ×10⁻⁶ cm/s | hepatic NOEL [2, 5]: 12 mg/kg/day

Cc1ccc(N)c(C)c1 [2,4-dimethylaniline]
Papp [1]: 66.1 ± 2 ×10⁻⁶ cm/s | hepatic NOEL [2, 5]: 2 mg/kg/day

Nc1ccccc1-c1ccccc1 [2-aminobiphenyl]
Papp [1]: 57.6 ± 1.1 ×10⁻⁶ cm/s | hepatic NOEL [2, 5]: 100 mg/kg/day

Nc1ccccc1Cl [2-chloroaniline]
Papp [1]: 89.3 ± 2.6 ×10⁻⁶ cm/s

Oc1ccccc1Cl [2-chlorophenol]
Papp [1]: 75.2 ± 8.3 ×10⁻⁶ cm/s | hepatic NOEL [2, 6]: 200 mg/kg/day

Oc1nc2ccccc2[nH]1 [2-hydroxybenzimidazole]
Papp [1]: 50.7 ± 1.6 ×10⁻⁶ cm/s

Oc1ccccc1-c1ccccc1 [2-hydroxybiphenyl]
Papp [1]: 33.4 ± 2.9 ×10⁻⁶ cm/s

Sc1nc2ccccc2[nH]1 [2-mercaptobenzimidazole]
Papp [1]: 67.3 ± 1.8 ×10⁻⁶ cm/s | hepatic NOEL [2, 5]: 2 mg/kg/day

Sc1ncc[nH]1 [2-mercaptoimidazole]
Papp [1]: 9.1 ± 0.3 ×10⁻⁶ cm/s

COc1cc([N+](=O)[O-])ccc1N [2-methoxy-4-nitroaniline]
Papp [1]: 55.2 ± 7 ×10⁻⁶ cm/s | hepatic NOEL [2, 6]: 100 mg/kg/day

Cc1ccc(N)cc1C [3,4-dimethylaniline]
Papp [1]: 54.1 ± 5.8 ×10⁻⁶ cm/s | hepatic NOEL [2, 5]: 50 mg/kg/day

Cc1cc(C)cc(N)c1 [3,5-dimethylaniline]
Papp [1]: 67.4 ± 11.3 ×10⁻⁶ cm/s | hepatic NOEL [2, 5]: 10 mg/kg/day

Nc1cccc(S(=O)(=O)O)c1 [3-aminobenzenesulfonic acid]
Papp [1]: 2.1 ± 0.3 ×10⁻⁶ cm/s

Nc1cccc(O)c1 [3-aminophenol]
Papp [1]: 51.3 ± 2.3 ×10⁻⁶ cm/s

N#Cc1cccnc1 [3-cyanopyridine]
Papp [1]: 56.9 ± 7 ×10⁻⁶ cm/s | hepatic NOEL [2, 5]: 5 mg/kg/day

CCc1cccc(O)c1 [3-ethylphenol]
Papp [1]: 51.5 ± 5 ×10⁻⁶ cm/s | hepatic NOEL [2, 6]: 300 mg/kg/day

Oc1cccc(-c2ccccc2)c1 [3-hydroxybiphenyl]
Papp [1]: 28.4 ± 2.2 ×10⁻⁶ cm/s

Nc1cccc([N+](=O)[O-])c1 [3-nitroaniline]
Papp [1]: 52 ± 5 ×10⁻⁶ cm/s | hepatic NOEL [2, 5]: 15 mg/kg/day

Cc1cc(Cl)ccc1O [4-chloro-o-cresol]
Papp [1]: 75.4 ± 3.9 ×10⁻⁶ cm/s | hepatic NOEL [2, 6]: 250 mg/kg/day

Oc1ccc(Cl)cc1 [4-chlorophenol]
Papp [1]: 43.1 ± 3.7 ×10⁻⁶ cm/s

CCc1ccc(O)cc1 [4-ethylphenol]
Papp [1]: 43.7 ± 2.3 ×10⁻⁶ cm/s | hepatic NOEL [2, 6]: 100 mg/kg/day

Oc1ccc(-c2ccccc2)cc1 [4-hydroxybiphenyl]
Papp [1]: 44.1 ± 2.8 ×10⁻⁶ cm/s

CCC(C)c1ccc(O)cc1 (stereo not shown) [4-sec-butylphenol]
Papp [1]: 40.2 ± 1.9 ×10⁻⁶ cm/s

CC(C)(c1ccccc1)c1ccc(O)cc1 [4-α-cumylphenol]
Papp [1]: 19.5 ± 3.4 ×10⁻⁶ cm/s | hepatic NOEL [2, 6]: 100 mg/kg/day

Cc1cc(N)c(S(=O)(=O)O)cc1Cl [5-amino-2-chlorotoluene-4-sulfonic acid]
Papp [1]: 2 ± 0.2 ×10⁻⁶ cm/s | hepatic NOEL [2, 5]: 1000 mg/kg/day

CCOc1ccc2ccc(=O)oc2c1 [7-ethoxycoumarin]
Papp [1]: 75 ± 4.8 ×10⁻⁶ cm/s

O=c1ccc2ccc(O)cc2o1 [7-hydroxycoumarin]
Papp [1]: 103 ± 17 ×10⁻⁶ cm/s

CN(C)c1ccccc1 [N,N-dimethylaniline]
Papp [1]: 99.9 ± 12.9 ×10⁻⁶ cm/s

CCNc1ccccc1 [N-ethylaniline]
Papp [1]: 66 ± 1 ×10⁻⁶ cm/s | hepatic NOEL [2, 5]: 5 mg/kg/day

CNc1ccccc1 [N-methylaniline]
Papp [1]: 46.3 ± 5 ×10⁻⁶ cm/s | hepatic NOEL [2, 5]: 5 mg/kg/day

CC(=O)Nc1ccc(O)cc1 [acetaminophen, reference compound]
Papp [1]: 31.9 ± 1.4 ×10⁻⁶ cm/s | reported human Fa [3]: 100 [23] % | hepatic NOEL ([2]; Table 2): 250 [11] mg/kg/day

Nc1ccccc1 [aniline]
Papp [1]: 54.4 ± 2.6 ×10⁻⁶ cm/s

CC(C)NCC(O)COc1ccc(CC(N)=O)cc1 (stereo not shown) [atenolol]
reported human Fa [3]: 50 [7] %

CNCC[C@@H](Oc1ccccc1C)c1ccccc1 [atomoxetine, reference compound]
Papp [1]: 2.7 ± 0.1 ×10⁻⁶ cm/s | reported human Fa [3]: 100 [8] %

COP(=O)(OC)SCn1c(=O)oc2cc(Cl)cnc21 [azamethiphos]
Papp [1]: 40.2 ± 1.8 ×10⁻⁶ cm/s

c1ccc2[nH]cnc2c1 [benzimidazole]
Papp [1]: 73 ± 0.6 ×10⁻⁶ cm/s

O=C(O)c1ccccc1 [benzoic acid]
Papp [1]: 149 ± 16 ×10⁻⁶ cm/s

CN(C)CCCOc1nn(Cc2ccccc2)c2ccccc12 [benzydamine, reference compound]
Papp [1]: 1.6 ± 0.1 ×10⁻⁶ cm/s

CC(C)(c1ccc(O)cc1)c1ccc(O)cc1 [bisphenol A]
Papp [1]: 32.1 ± 1.3 ×10⁻⁶ cm/s | hepatic NOEL [2, 5]: 200 mg/kg/day

Oc1ccc(Cc2ccc(O)cc2)cc1 [bisphenol F]
hepatic NOEL [2, 6]: 100 mg/kg/day | observed Papp [4]: 41.5 ± 2.1 ×10⁻⁶ cm/s

CN/C(=N/CCSCc1nc[nH]c1C)NC#N [cimetidine, reference compound]
Papp [1]: 1.7 ± 0.2 ×10⁻⁶ cm/s | reported human Fa [3]: 68 [7] %

CN1C(=O)CC[C@H]1c1cccnc1 [cotinine]
Papp [1]: 41.2 ± 2.9 ×10⁻⁶ cm/s | reported human Fa [3]: 90 [8] %

[H]/N=C(/N)c1ccc(NCc2nc3cc(C(=O)N(CCC(=O)O)c4ccccn4)ccc3n2C)cc1 [dabigatran, reference compound]
Papp [1]: 3.8 ± 1.7 ×10⁻⁶ cm/s

C[C@@H]1C[C@H]2[C@@H]3CCC4=CC(=O)C=C[C@]4(C)[C@@]3(F)[C@@H](O)C[C@]2(C)[C@@]1(O)C(=O)CO [dexamethasone, reference compound]
Papp [1]: 9.5 ± 1.4 ×10⁻⁶ cm/s | reported human Fa [3]: 90 [8] %

O=C(O)Cc1ccccc1Nc1c(Cl)cccc1Cl [diclofenac, reference compound]
Papp [1]: 75.6 ± 0.6 ×10⁻⁶ cm/s | reported human Fa [3]: 82 [25] %

COc1ccc2c3c1O[C@H]1[C@@H](O)CC[C@H]4[C@@H](C2)N(C)CC[C@@]341 [dihydrocodeine, reference compound]
Papp [1]: 2.4 ± 0.1 ×10⁻⁶ cm/s

c1ccc(Nc2ccccc2)cc1 [diphenylamine]
Papp [1]: 15.1 ± 1.1 ×10⁻⁶ cm/s

CC(C)N(CCC(C(N)=O)(c1ccccc1)c1ccccn1)C(C)C (stereo not shown) [disopyramide, reference compound]
Papp [1]: 1.4 ± 0.3 ×10⁻⁶ cm/s | reported human Fa [3]: 83 [7] %

O=C(O)CNC(=O)c1ccccc1 [hippuric acid]
Papp [1]: 0.6 ± 0.1 ×10⁻⁶ cm/s

N#Cc1cccc(C#N)c1 [isophthalonitrile]
hepatic NOEL [2, 5]: 8 mg/kg/day | Papp [4]: 805 ± 8 ^a nm/s

COc1ccc(C(=O)NCc2ccc(OCCN(C)C)cc2)cc1OC [itopride, reference compound]
Papp [1]: 1.2 ± 0.3 ×10⁻⁶ cm/s

Nc1cccc2c1CN(C1CCC(=O)NC1=O)C2=O (stereo not shown) [lenalidomide, reference compound]
Papp [1]: 0.7 ± 0.1 ×10⁻⁶ cm/s | reported human Fa [3]: 90 [26] %

CC[C@H](C)C(=O)O[C@H]1C[C@@H](C)C=C2C=C[C@H](C)[C@H](CC[C@@H]3C[C@@H](O)CC(=O)O3)[C@H]21 [lovastatin, reference compound]
Papp [1]: 2.1 ± 0.1 ×10⁻⁶ cm/s | reported human Fa [3]: 31 [7] %

Cc1cccc(O)c1 [m-cresol]
Papp [1]: 85.1 ± 3.5 ×10⁻⁶ cm/s | hepatic NOEL [2, 5]: 100 mg/kg/day

Cc1cccc(Nc2ccccc2C(=O)O)c1C [mefenamic acid, reference compound]
Papp [1]: 180 ± 8.3 ×10⁻⁶ cm/s

CN(Cc1cnc2nc(N)nc(N)c2n1)c1ccc(C(=O)N[C@@H](CCC(=O)O)C(=O)O)cc1 [methotrexate, reference compound]
Papp [1]: 1.1 ± 0.2 ×10⁻⁶ cm/s | reported human Fa [3]: 20 [24] %

COCCc1ccc(OCC(O)CNC(C)C)cc1 (stereo not shown) [metoprolol, reference compound]
Papp [1]: 3.4 ± 0.1 ×10⁻⁶ cm/s

Cc1ncc2n1-c1ccc(Cl)cc1C(c1ccccc1F)=NC2 [midazolam, reference compound]
Papp [1]: 31.8 ± 1.9 ×10⁻⁶ cm/s | reported human Fa [3]: 60 [28] %

CN1CCN2c3ncccc3Cc3ccccc3C2C1 (stereo not shown) [mirtazapine, reference compound]
Papp [1]: 4.6 ± 0.3 ×10⁻⁶ cm/s

CCCCC(CC)COC(=O)c1ccccc1C(=O)O (stereo not shown) [mono(2-ethylhexyl) phthalate]
Papp [4]: 467 ± 18 nm/s

CCCCOC(=O)c1ccccc1C(=O)O [monobutyl phthalate]
Papp [1]: 31.8 ± 0.8 ×10⁻⁶ cm/s

CN1CCC[C@H]1c1cccnc1 [nicotine, reference compound]
Papp [1]: 5.7 ± 0.6 ×10⁻⁶ cm/s | reported human Fa [3]: 100 [8] %

Cc1ccccc1O [o-cresol]
Papp [1]: 90.5 ± 6.4 ×10⁻⁶ cm/s

Cc1cc2c(s1)Nc1ccccc1N=C2N1CCN(C)CC1 [olanzapine, reference compound]
Papp [1]: 3.5 ± 0.3 ×10⁻⁶ cm/s

COc1ccc2[nH]c([S+]([O-])Cc3ncc(C)c(OC)c3C)nc2c1 (stereo not shown) [omeprazole, reference compound]
reported human Fa [3]: 95 [7] %

Nc1ccc(C(=O)O)cc1 [p-aminobenzoic acid]
Papp [1]: 58.7 ± 4 ×10⁻⁶ cm/s

Cc1ccc(O)cc1 [p-cresol]
Papp [1]: 50.7 ± 4.5 ×10⁻⁶ cm/s

O=C(O)c1ccc(O)cc1 [p-hydroxybenzoic acid]
Papp [1]: 60.9 ± 3 ×10⁻⁶ cm/s

CCOc1ccc(N)cc1 [p-phenetidine]
hepatic NOEL [2, 6]: 160 mg/kg/day | observed Papp [4]: 58.2 ± 3.1 ×10⁻⁶ cm/s

O=C1NC(=O)c2ccccc21 [phthalimide]
Papp [1]: 93.3 ± 6.9 ×10⁻⁶ cm/s

Nc1cccc2c1C(=O)N(C1CCC(=O)NC1=O)C2=O (stereo not shown) [pomalidomide, reference compound]
Papp [1]: 46.6 ± 5.7 ×10⁻⁶ cm/s | reported human Fa [3]: 73 [29] %

CC[C@H](C)C(=O)O[C@H]1C[C@H](O)C=C2C=C[C@H](C)[C@H](CC[C@@H](O)C[C@@H](O)CC(=O)O)[C@H]21 [pravastatin, reference compound]
Papp [1]: 0.9 ± 0.1 ×10⁻⁶ cm/s | reported human Fa [3]: 13 [31] %

CC(=O)[C@H]1CC[C@H]2[C@@H]3CCC4=CC(=O)CC[C@]4(C)[C@H]3CC[C@]12C [progesterone, reference compound]
Papp [1]: 11.3 ± 2 ×10⁻⁶ cm/s

CC(C)NCC(O)COc1cccc2ccccc12 (stereo not shown) [propranolol, reference compound]
Papp [1]: 2.9 ± 0.3 ×10⁻⁶ cm/s

OCCOCCN1CCN(C2=Nc3ccccc3Sc3ccccc32)CC1 [quetiapine, reference compound]
Papp [1]: 3.8 ± 0.4 ×10⁻⁶ cm/s | reported human Fa [3]: 73 [30] %

N#Cc1ccc(C#N)cc1 [terephthalonitrile]
Papp [1]: 57.3 ± 1.3 ×10⁻⁶ cm/s | hepatic NOEL [2, 5]: 20 mg/kg/day

O=C1CCC(N2C(=O)c3ccccc3C2=O)C(=O)N1 (stereo not shown) [thalidomide, reference compound]
Papp [1]: 23.5 ± 1.9 ×10⁻⁶ cm/s

CCCCNC(=O)NS(=O)(=O)c1ccc(C)cc1 [tolbutamide, reference compound]
Papp [1]: 122 ± 11 ×10⁻⁶ cm/s

CN(C)C [trimethylamine]
Papp [4]: 33 ± 1 nm/s

CC(=O)CC(c1ccccc1)c1c(O)c2ccccc2oc1=O (stereo not shown) [warfarin, reference compound]
Papp [1]: 121 ± 5 ×10⁻⁶ cm/s

lucifer yellow [reference compound]
reported human Fa [3]: 0 [27] % | Papp [4]: 7 ± 1 nm/s
